According to US12458643B2, “Antidepressant/anxiolytic drug in which PAC1 receptor antagonist is used” (KAGOSHIMA UNIVERSITY, priority 2020, dated 2025):

Experiments:
normal mice [1] = assay: Y maze test in normal mice; format: in vivo, mouse; settings: 30 mg/kg i.p., 60 minutes after
Method: A vehicle (10% DMSO solution; dissolved in saline; n=11) or PA-915 (30 mg/kg; n=10) was intraperitoneally administered (0.1 mL/10 g) to male C57BL/6J mice (8 to 12 weeks old). After a lapse of 60 minutes after administration, the mice were allowed to explore the Y maze for 5 minutes in a laboratory (illuminance: 20 lx). The data was indicated by mean±standard error.

normal mice [2] = assay: Novel object recognition test in normal mice; format: in vivo, mouse; settings: 30 mg/kg i.p., 60 minutes later
Method: Male C57BL/6J mice (8 weeks old) were acclimatized to the test box by exploration at 10 min/day for 3 days. On the fourth day, two objects differing in shape were placed in the test box, and the mice were allowed to freely explore the test box for 10 minutes (training trial). 23 hours after the completion of exploration, a vehicle (10% DMSO solution; dissolved in saline; n=10) or PA-915 (30 mg/kg; n=10) was intraperitoneally administered thereto (0.1 mL/10 g). 60 minutes later, one of the two objects was changed to a novel object, and the mice were allowed to explore the test box for 5 minutes (retention trial). Novel and known object exploration times were measured. The results are shown in FIGS. 36B and 36C (B: discrimination index, C: novel object exploration ratio). The data was indicated by mean±standard error.

SMILES: O=C(NCCc1c[nH]cn1)C1CC(=O)N(c2n[nH]c3c(Cl)cccc23)C1 (centres unmarked) [PA-915, N-[2-(1H-imidazol-4-yl)ethyl]-1-(7-chloro-1H-indazol-3-yl)-5-oxo-3-pyrrolidinecarboxamide]
- influence on cognitive function (Y maze test) (normal mice [1]): had no influence on the cognitive function
- influence on cognitive function (novel object recognition test) (normal mice [2]): had no influence on the cognitive function
